Patent US12479836B2, “Sphingosine-1-phosphate receptor agonist, preparation method therefor, and pharmaceutical composition containing same as active ingredient” (priority 2019, dated 2025)

Target: T1, human sphingosine-1-phosphate 1 receptor (S1P1 receptor) (Homo sapiens, UniProt P21453)
T1 construct: host or cells: CHO-K1
Test: Ca2+ inducing ability (calcium increase, Calcium 5 assay kit) in CHO cells overexpressing human S1P1 receptor
Type: cell-based
Description: Experimental Example: Evaluation of Ca^2+ Inducing Ability of a Test Compound Using a Cell Line Expressing Human Sphingosine-1-Phosphate
It is a functional test method in which a therapeutic efficacy of an agonist compound is determined by an increase in calcium in CHO (Chinese hamster ovary) cells, which overexpress human sphingosine-1-phosphate 1 receptor (S1P1 receptor) that react with sphingosine-1-phosphate (S1P). […] coupled to Gi protein that reacts with the S1P1 receptor and increases intracellular calcium concentration. CHO-K1 cells, which are used for preparing a stable cell line, show no change in the calcium concentration by S1P, and thus they are good for checking signals from human S1P receptors after transfecting the cells with each subtype of the receptors.
To prepare CHO cells which overexpress human S1P1-S1P5, human clones for each subtype having HA at the N terminal residue (S1P1: EDG010 TN00, S1P2: EDG020TN00, S1P3: EDG030TN00, S1P4: EDG060TN00, S1P5: EDG080TN00) were purchased from Missouri S&T cDNA Resource Center and co-transfected with G-protein alpha subunit (G-alpha-16) into CHO-K1 cells. After separating cells by fluorescence-activated cell sorting (FACS, LK BioScience, JSAN) using HA-antibodies (MACS, Anti-HA-PE), they were selectively cultured in the medium with 10% FBS (Gibco, USA), 0.5 mg/mL Geneticin (Gibco) and 0.2 mg/mL Hygromycin B F12 (Gibco) to obtain the desired cells.
A calcium measurement kit (Calcium 5 assay kit, Molecular Devices) was used to select an agonist compound. The principle of calcium measurement is that calcium-sensitive dyes are applied to cells, they enter into the cytoplasm of the cells during incubation, and when a ligand binds to a certain receptor to release calcium into the cytoplasm, the dyes bind to said calcium to induce fluorescence which is measured. This test method can sensitively measure only the intracellular calcium concentration change because any change that may occur outside the cells is masked by a masking dye.
The experimental procedure was as follows. One day before calcium measurement, CHO cells overexpressing hS1P1-hS1P5 were dispensed into a 96-well plate (bottom clear black well) in 3×10^4 cells per well and cultured at 37° C. under 5% carbon dioxide condition for one day. 100 μl of calcium dyes mixed with Assay Buffer (1×HBSS, 20 mM HEPES, 2.5 mM probenecid, pH 7.4) were dispensed into culture solution in well and cultured at 37° C. for one hour. Test compounds were dissolved in 100% DMSO to prepare 1 μl solution per each concentration, and each solution was mixed with 199 μl Assay Buffer such that the concentrations were […]. The plate cultured with the calcium dyes was put into FlaxstationII (Molecular Devices), and the prepared test compounds (the final concentrations of the test compounds: 10, 1, 0.1, 0.01, 0.001 and 0.0001 μM) were programmed to be automatically inoculated in 50 μl per each well. For a total of 90 seconds, relative fluorescence unit (RFU) values were measured. The value of Reference (S1P substance 1 μM) deducting the blank value was set as 100%, and EC50 values of the test compounds were calculated by prism.

T1 sequence (P21453 whole entry): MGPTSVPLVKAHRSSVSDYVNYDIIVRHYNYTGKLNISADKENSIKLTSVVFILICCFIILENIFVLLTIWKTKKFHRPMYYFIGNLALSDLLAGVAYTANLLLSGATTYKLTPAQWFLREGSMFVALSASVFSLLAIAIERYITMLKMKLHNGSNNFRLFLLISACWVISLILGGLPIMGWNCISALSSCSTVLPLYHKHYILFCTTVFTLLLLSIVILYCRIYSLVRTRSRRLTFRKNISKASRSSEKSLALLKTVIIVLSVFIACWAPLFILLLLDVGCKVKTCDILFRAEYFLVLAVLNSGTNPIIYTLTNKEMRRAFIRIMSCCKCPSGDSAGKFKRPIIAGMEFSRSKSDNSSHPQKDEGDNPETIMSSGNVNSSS

EC50 [nM]	Compound
4.07	CC(C)n1nc(Cl)c2cc(COc3ccc4c(c3)OCC(CN(C)CC(=O)O)=C4)ccc21 [Example 1, {[7-(3-chloro-1-isopropyl-1H-indazol-5-ylmethoxy)-2H-chromene-3-ylmethyl]-methyl-amino}-acetic acid]
2.09	CC(C)n1nc(Cl)c2cc(COc3ccc4c(c3)OCC(CN3CC(C(=O)O)C3)=C4)ccc21 [Example 2, 1-[7-(3-chloro-1-isopropyl-1H-indazol-5-ylmethoxy)-2H-chromene-3-ylmethyl]-azetidin-3-carboxylic acid]
70.8	CCCn1nc2ccc(COc3ccc4c(c3)OCC(CN3CC(C(=O)O)C3)=C4)cc2c1Cl [Example 3, 1-[7-(3-chloro-2-propyl-2H-indazol-5-ylmethoxy)-2H-chromene-3-ylmethyl]-azetidin-3-carboxylic acid]
9.12	CC(C)n1nc(Cl)c2cc(COc3ccc4c(c3)OCC(CN3CCC(C(=O)O)CC3)=C4)ccc21 [Example 4, 1-[7-(3-chloro-1-isopropyl-1H-indazol-5-ylmethoxy)-2H-chromene-3-ylmethyl]-piperidin-4-carboxylic acid]
11	CC(C)n1nc(Cl)c2cc(COc3ccc4c(c3)OCC(CN3CCC[C@@H](C(=O)O)C3)=C4)ccc21 [Example 5, (R)-1-[7-(3-chloro-1-Isopropyl-1H-indazol-5-ylmethoxy)-2H-chromene-3-ylmethyl]-piperidin-3-carboxylic acid]
12.9	CC(C)n1nc(Cl)c2cc(COc3ccc4c(c3)OCC(CN3CCC[C@H](C(=O)O)C3)=C4)ccc21 [Example 6, (S)-1-[7-(3-chloro-1-H-isopropyl-1H-indazol-5-ylmethoxy)-2H-chromene-3-ylmethyl]-piperidin-3-carboxylic acid]
5.75	CC(C)n1nc(Cl)c2cc(COc3ccc4c(c3)OCC(CN3CC[C@H](C(=O)O)C3)=C4)ccc21 [Example 7, (S)-1-[7-(3-chloro-1-H-isopropyl-1H-indazol-5-ylmethoxy)-2H-chromene-3-ylmethyl]-pyrrolidin-3-carboxylic acid]
6.31	CC(C)n1nc(Cl)c2cc(COc3ccc4c(c3)OCC(CN3CC(CCl)(C(=O)O)C3)=C4)ccc21 [Example 8, 1-[7-(3-chloro-1-isopropyl-1H-indazol-5-ylmethoxy)-2H-chromene-3-ylmethyl]-chloromethyl-azetidin-3-carboxylic acid]
14.4	CC(C)n1nc(Cl)c2cc(COc3ccc4c(c3)OCC(CN3CC[C@@H](C(=O)O)C3)=C4)ccc21 [Example 9, (R)-1-[7-(3-chloro-1-Isopropyl-1H-indazol-5-ylmethoxy)-2H-chromene-3-ylmethyl]-pyrrolidin-3-carboxylic acid]
2.75	CC1=C(CN2CCC(C(=O)O)CC2)COc2cc(OCc3ccc4c(c3)c(Cl)nn4C(C)C)ccc21 [Example 10, 1-[7-(3-chloro-1-Isopropyl-1H-indazol-5-ylmethoxy)-4-methyl-2H-chromene-3-ylmethyl]-piperidin-4-carboxylic acid]
8.32	CC(C)n1nc(Cl)c2cc(COc3ccc4c(c3)OCC(CN3CCC(C(=O)O)CC3)=C4Cl)ccc21 [Example 11, 1-[4-chloro-7-(3-chloro-1-H-isopropyl-1H-indazol-5-ylmethoxy)-2H-chromene-3-ylmethyl]-piperidin-4-carboxylic acid]
14.4	CC(C)n1nc(Cl)c2cc(COc3cc(F)c4c(c3)OCC(CN3CCC(C(=O)O)CC3)=C4)ccc21 [Example 12, 1-[7-(3-chloro-1-H-isopropyl-1H-indazol-5-ylmethoxy)-5-fluoro-2H-chromene-3-ylmethyl]-piperidin-4-carboxyl acid]
17.4	CC(C)n1nc(C(F)(F)F)c2cc(COc3ccc4c(c3)OCC(CN3CCC(C(=O)O)CC3)=C4)ccc21 [Example 13, 1-[7-(1-Isopropyl-3-trifluoromethyl-1H-indazol-5-ylmethoxy)-2H-chromene-3-ylmethyl]-piperidin-4-carboxylic acid]
12	CCc1nn(C(C)C)c2ccc(COc3ccc4c(c3)OCC(CN3CCC(C(=O)O)CC3)=C4)cc12 [Example 14, 1-[7-(1-H-isopropyl-3-ethyl-1H-indazol-5-ylmethoxy)-2H-chromene-3-ylmethyl]-piperidin-4-carboxylic acid]
6.31	CC(C)n1nc(Cl)c2cc(COc3ccc4c(c3)OCC(CN3CCCC(C(=O)O)CC3)=C4)ccc21 (stereo not drawn) [Example 15, 1-[7-(3-chloro-1-isopropyl-1H-indazol-5-ylmethoxy)-2H-chromene-3-ylmethyl]-azepane-4-carboxylic acid]
43.6	CCCn1nc(Cl)c2cc(COc3ccc4c(c3)OCC(CN3CC(C(=O)O)C3)=C4)ccc21 [Example 16, 1-[7-(3-chloro-1-propyl-1H-indazol-5-ylmethoxy)-2H-chromene-3-ylmethyl]-azetidin-3-carboxylic acid]
20.9	CCCn1nc(Cl)c2cc(COc3ccc4c(c3)OCC(CN3CCC(C(=O)O)CC3)=C4)ccc21 [Example 17, 1-[7-(3-chloro-1-propyl-1H-Indazol-5-ylmethoxy)-2H-chromene-3-ylmethyl]-piperidin-4-carboxylic acid]
64.6	O=C(O)C1CCN(CC2=Cc3ccc(OCc4ccc5c(c4)c(Cl)nn5CC4CC4)cc3OC2)CC1 [Example 18, 1-[7-(3-chloro-1-cyclopropylmethyl-1H-indazol-5-ylmethoxy)-2H-chromene-3-ylmethyl]-piperidin-4-carboxylic acid]
70.8	O=C(O)C1CCN(CC2=Cc3c(F)cc(OCc4ccc5c(c4)c(Cl)nn5C4CCCC4)cc3OC2)CC1 [Example 19, 1-[7-(3-chloro-1-cyclopentyl-1H-indazol-5-ylmethoxy)-5-fluoro-2H-chromene-3-ylmethyl]-piperidin-4-carboxylic acid]
5.13	CC(C)Cn1nc(Cl)c2cc(COc3cc(F)c4c(c3)OCC(CN3CCC(C(=O)O)CC3)=C4)ccc21 [Example 20, 1-[7-(3-chloro-1-isobutyl-1H-indazol-5-ylmethoxy)-5-fluoro-2H-chromene-3-ylmethyl]-piperidin-4-carboxylic acid]
14.4	CC(C)Cn1nc(Cl)c2cc(COc3cc(F)c4c(c3)OCC(CN3CCCC(C(=O)O)CC3)=C4)ccc21 (stereo not drawn) [Example 21, 1-[7-(3-chloro-1-Isobutyl-1H-indazol-5-ylmethoxy)-5-fluoro-2H-chromene-3-ylmethyl]-azepane-4-carboxylic acid]
